Assay results: US4160768A, “Anti-inflammatory 3-benzofuranyl imidazothiazole” (Diamond Shamrock Corporation, priority 1978, dated 1979)
Structures can show the parent of a compound that is named as a salt. Where two headings read alike, the source gives them in different places.

Experiments:
[1] = adjuvant-induced arthritis test (Newbould); assay type: in vivo, rat
Text: Selected compounds were further subjected to advanced evaluations. Specifically, in view of the interesting activity of compounds 1 and 9, those compounds were further subjected to the adjuvant-induced arthritis test. This test requires one month (from day 0 to day 31). In the first seventeen days (0-17), the disease is in a developing stage, while for the remainder of the month (18-31) the disease is fully developed.
The method is essentially that of Newbould, Brit. J. Pharmacol. 21: 127, 1963. The test compounds were studied in the developing arthritis state and in the established arthritic state. Separate groups of twelve rats were administered the compounds orally using methylcellulose as the vehicle. In the study on the developing disease, administration of the test compounds begins on day 1 and on day 2 each animal is injected with 0.05 ml/kg of a 0.5% suspension of heat-killed Mycobacterium tuberculosis into the planter surface of the left hind paw. Foot volumes were measured by a water displacement device on the day of administration of the Mycobacterium and again on days 3, 10 and 17. The test compounds were administered once daily. Body weights were recorded daily and the animals were examined for the spread of the inflammation and the degree of secondary lesions. For study in the established disease, another group of rats are injected with the Mycobacterium and foot volumes are measured. After twenty days volumes are again measured and administration of the test compounds begins and continues for eleven days. Foot volume measurements are repeated on day 27 and day 31. The extent of the spread of the inflammation and the degree of lesions are recorded daily as are the body weights. The effect of the test compounds is measured by the percentage reduction in left hind paw volumes as compared to the hind paw volumes of the control groups.

[2] = carrageenin-induced edema in the hind paw of the rat (modified Winter et al.); assay type: in vivo; settings: for ED50: dose which reduced edema formation by about 25% or more vs mean control in 50% of the animals
Method: (§1) The procedure used for measuring the inhibition of carrageenin-induced edema is a slight modification of the method of Winter et al., Proc. Soc. Explt. Biol. Med. 111: 544 (1962). The device used for measurement of the paw volume is an adaptation of the water displacement procedure described by Adamkiewicz et al., Can. J. Biochem. Physiol. 33: 332 (1955). The above compounds were studied for their effectiveness in preventing the edema caused by the intraplantar injection of 0.05 ml of a sterile 1.0% solution of carrageenin. Compounds were administered orally, except when indicated as intraperitoneally (i.p.), one hour prior to the injection of the carrageenin into the left hind paw of rats. At peak swelling time (3 hours) the volume of edema was calculated by differential paw volumes.
Table I (in which Ph=phenyl) sets forth results obtained at the indicated dosages with compounds (or their salts) of the formula [drawing 8]
Following the procedure set forth in Example 4, hydrated compounds according to the following formula were evaluated for antiinflammatory effect with the results shown in Table II: [drawing 9]
Certain of the compounds of the invention were further tested to determine their ED50 values. […] Typical results of these tests appear in Table III.

[3] = adrenalectomized assay (carrageenin edema in adrenalectomized rats); assay type: in vivo, Adrenalectomized Sprague Dawley Male Rats; settings: Rattus norvegicus, po, 3 h, read-out: % Reduction (adrenalectomized rats)
Method: as §1
Next, certain of the compounds were subjected to a secondary screen designated the adrenalectomized assay. In this series of tests, the method used was identical to that described above, except that the animals used were adrenalectomized several days prior to assay. Since the results in the nonadrenalectomized animals were similar to those obtained in the adrenalectromized animals, it can be inferred that the antiinflammatory activity of the test compounds was not caused by the release of endogeneous adrenocortical steriods.

[4] = Rattus norvegicus, po, 3 h, Table I, 50 mg/kg, oral, 1 h before carrageenin, 3 h, read-out: Reduction % (carrageenin edema)
[5] = Rattus norvegicus, po, 3 h, Table I, 25 mg/kg, oral, 1 h before carrageenin, 3 h, read-out: Reduction % (carrageenin edema)
[6] = Rattus norvegicus, po, 3 h, Table I, 40 mg/kg, oral, 1 h before carrageenin, 3 h, read-out: Reduction % (carrageenin edema)

## C1=C(c2ccccc2)N2CCN=C2S1 [Compound 1]
[1]; 20 mg/kg, day 3, developing (prophylactic)
  % reduction in swelling, hind paws: 18%
[1]; 20 mg/kg, day 10, developing (prophylactic)
  % reduction in swelling, hind paws: 13%
[1]; 20 mg/kg, day 17, developing (prophylactic)
  % reduction in swelling, hind paws: 18%
[1]; 20 mg/kg, day 20, developed (therapeutic)
  % reduction in swelling, hind paws: 5%
[1]; 20 mg/kg, day 27, developed (therapeutic)
  % reduction in swelling, hind paws: 0%
[1]; 20 mg/kg, day 31, developed (therapeutic)
  % reduction in swelling, hind paws: 0%
[1]; 40 mg/kg, day 3, developing (prophylactic)
  % reduction in swelling, hind paws: 10%
[1]; 40 mg/kg, day 10, developing (prophylactic)
  % reduction in swelling, hind paws: 21%
[1]; 40 mg/kg, day 17, developing (prophylactic)
  % reduction in swelling, hind paws: 43%
[1]; 40 mg/kg, day 20, developed (therapeutic)
  % reduction in swelling, hind paws: 4%
[1]; 40 mg/kg, day 27, developed (therapeutic)
  % reduction in swelling, hind paws: 14%
[1]; 40 mg/kg, day 31, developed (therapeutic)
  % reduction in swelling, hind paws: 8%
[2]; [4]
  inhibition in vivo at 50 mg/kg: 47%
[2]; Rattus norvegicus, po, 3 h
  ED50: 25 mg/kg
[3]
  inhibition in vivo at 50 mg/kg: 32%

## Cc1ccc(C2=CSC3=NCCN23)cc1C [Compound 2]
[2]; [4]
  inhibition in vivo at 50 mg/kg: 27%

## CSC1=C(C(C)(C)C)N2CCN=C2S1 [Compound 3, 2-methylthio-3-t-butyl-5,6-dihydro-4H-imidazo-[2,1-b] thiazole hydrobromide]
[2]; [4]
  inhibition in vivo at 50 mg/kg: 26%

## CCC1=C(c2ccccc2)N2CCN=C2S1 [Compound 4]
[2]; [5]
  inhibition in vivo at 25 mg/kg: 41%
[3]
  inhibition in vivo at 25 mg/kg: 31%

## CCC1=C(c2ccc(Cl)cc2)N2CCN=C2S1 [Compound 5]
[2]; [5]
  inhibition in vivo at 25 mg/kg: 33%
[3]
  inhibition in vivo at 25 mg/kg: 15%

## CC1=C(c2ccc(Cl)cc2)N2CCN=C2S1 [Compound 6]
[2]; [5]
  inhibition in vivo at 25 mg/kg: 45%
[3]
  inhibition in vivo at 25 mg/kg: 19%

## Brc1ccc(C2=CSC3=NCCN23)cc1 [Compound 7]
[2]; [4]
  inhibition in vivo at 50 mg/kg: 70%

## CC(C)(C)C1=CSC2=NCCN12 [Compound 8]
[2]; [4]
  inhibition in vivo at 50 mg/kg: 56%
[3]
  inhibition in vivo at 25 mg/kg: 23%

## CC1=CSC2=NCCN12 [Compound 9]
[1]; 24 mg/kg, day 3, developing (prophylactic)
  % reduction in swelling, hind paws: 21%
[1]; 24 mg/kg, day 10, developing (prophylactic)
  % reduction in swelling, hind paws: 23%
[1]; 24 mg/kg, day 17, developing (prophylactic)
  % reduction in swelling, hind paws: 15%
[1]; 24 mg/kg, day 20, developed (therapeutic)
  % reduction in swelling, hind paws: 5%
[1]; 24 mg/kg, day 27, developed (therapeutic)
  % reduction in swelling, hind paws: 0%
[1]; 24 mg/kg, day 31, developed (therapeutic)
  % reduction in swelling, hind paws: 0%
[1]; 50 mg/kg, day 3, developing (prophylactic)
  % reduction in swelling, hind paws: 18%
[1]; 50 mg/kg, day 10, developing (prophylactic)
  % reduction in swelling, hind paws: 17%
[1]; 50 mg/kg, day 17, developing (prophylactic)
  % reduction in swelling, hind paws: 6%
[1]; 50 mg/kg, day 20, developed (therapeutic)
  % reduction in swelling, hind paws: 3%
[1]; 50 mg/kg, day 27, developed (therapeutic)
  % reduction in swelling, hind paws: 3%
[1]; 50 mg/kg, day 31, developed (therapeutic)
  % reduction in swelling, hind paws: 7%
[2]; [4]
  inhibition in vivo at 50 mg/kg: 46%
[2]; Rattus norvegicus, po, 3 h
  ED50: 20 mg/kg
[3]
  inhibition in vivo at 25 mg/kg: 46%

## C1=C(c2cccc3ccccc23)N2CCN=C2S1 [Compound 10]
[2]; [4]
  inhibition in vivo at 50 mg/kg: 58%
[3]
  inhibition in vivo at 50 mg/kg: 18%

## CC(C)(C)C1=CSC2=NCCN12 [Compound 11]
[2]; Table I, 50 mg/kg, oral, 1 h before carrageenin, 3 h, 50 mg/kg
  Reduction (%) (carrageenin edema): 48%

## CC1CN2C(C(C)(C)C)=CSC2=N1 (stereo not drawn) [Compound 12]
[2]; [4]
  inhibition in vivo at 50 mg/kg: 54%

## CC1=CSC2=NC(C)CN12 (stereo not drawn) [Compound 13]
[2]; [4]
  inhibition in vivo at 50 mg/kg: 24%

## CC1=C(c2ccccc2)N2CCN=C2S1 [Compound 14]
[2]; [4]
  inhibition in vivo at 50 mg/kg: 49%

## CC1=C(c2ccccc2)SC2=NCCN21 [Compound 15]
[2]; [4]
  inhibition in vivo at 50 mg/kg: 53%

## CC1CN2C(c3ccc(Cl)cc3)=CSC2=N1 (stereo not drawn) [Compound 16]
[2]; [4]
  inhibition in vivo at 50 mg/kg: 58%
[3]
  inhibition in vivo at 50 mg/kg: 16%

## CC1CN2C(c3ccc([N+](=O)[O-])cc3)=CSC2=N1 (stereo not drawn) [Compound 17]
[2]; [4]
  inhibition in vivo at 50 mg/kg: 48%
[3]
  inhibition in vivo at 50 mg/kg: 60%

## CC1CN2C(c3ccc(Cl)c(Cl)c3)=CSC2=N1 (stereo not drawn) [Compound 18]
[2]; [4]
  inhibition in vivo at 50 mg/kg: 42%

## O=C(O)CC1=C(c2ccccc2)N2CCN=C2S1 [Compound 19, 3-phenyl-5,6-dihydro-4H-imidazo[2,1-b] thiazo-2-yl-acetic acid hydrobromide]
[2]; Rattus norvegicus, ip, 3 h, Table I, 100 mg/kg i.p., 1 h before carrageenin, 3 h, read-out: Reduction % (carrageenin edema)
  inhibition in vivo at 100 mg/kg: 24%

## Clc1ccc(C[N+]2=C3SC=C(c4ccccc4)N3CC2)cc1Cl [Compound 20]
[2]; Rattus norvegicus, po, 3 h, Table I, 20 mg/kg, oral, 1 h before carrageenin, 3 h, read-out: Reduction % (carrageenin edema)
  inhibition in vivo at 20 mg/kg: 36%

## Brc1ccc(C2=CSC3=NCCN23)cc1 [Compound 21]
[2]; [6]
  inhibition in vivo at 40 mg/kg: 49%

## C#CC[N+]1=C2SC=C(c3ccc(Br)cc3)N2CC1 [Compound 22]
[2]; Rattus norvegicus, po, 3 h, Table I, 100 mg/kg, oral, 1 h before carrageenin, 3 h, read-out: Reduction % (carrageenin edema)
  inhibition in vivo at 100 mg/kg: 36%

## C#CC(C)[N+]1=C2SC=C(c3ccc(Br)cc3)N2CC1 (stereo not drawn) [Compound 23]
[2]; [6]
  inhibition in vivo at 40 mg/kg: 27%

## ClCC=CC[N+]1=C2SC=C(c3ccc(Br)cc3)N2CC1 [Compound 24]
[2]; Rattus norvegicus, po, 3 h, Table I, 60 mg/kg, oral, 1 h before carrageenin, 3 h, read-out: Reduction % (carrageenin edema)
  inhibition in vivo at 60 mg/kg: 20%

## CC1=CSC2=NCCN12 [Compound 25]
[2]; Rattus norvegicus, po, 3 h, Table I, 150 mg/kg, oral, 1 h before carrageenin, 3 h, read-out: Reduction % (carrageenin edema)
  inhibition in vivo at 150 mg/kg: 44%

## C#CC[N+]1=C2SC=C(C)N2CC1 [Compound 26]
[2]; [6]
  inhibition in vivo at 40 mg/kg: 31%

## C1=C(c2cc3ccccc3o2)N2CCN=C2S1 [Compound 27, 3-(2-benzofuranyl)-5,6-dihydro-4H-imidazo[2,1-b] thiazole]
[2]; [6]
  inhibition in vivo at 40 mg/kg: 40%

## Clc1ccc(C2=CSC3=NCCCN23)cc1 [Compound 28]
[2]; [5]
  inhibition in vivo at 25 mg/kg: 29%

## CCC1=C(c2ccccc2)N2CCCN=C2S1 [Compound 29, 2-ethyl-3-phenyl-4,5,6,7-tetrahydrothiazole[3,2-a] pyrimidine hydrobromide]
[2]; [4]
  inhibition in vivo at 50 mg/kg: 76%
[3]
  inhibition in vivo at 25 mg/kg: 18%

## C1=C(c2ccccc2)N2CCCN=C2S1 [Compound 30]
[2]; [6]
  inhibition in vivo at 40 mg/kg: 25%

## CC1=C(c2ccccc2)N2CCCN=C2S1 [Compound 31]
[2]; [6]
  inhibition in vivo at 40 mg/kg: 48%

## O=[N+]([O-])c1ccc(C2=CSC3=NCCCN23)cc1 [Compound 32]
[2]; [5]
  inhibition in vivo at 25 mg/kg: 20%

## CC1=C(c2ccc(Cl)cc2)N2CCCN=C2S1 [Compound 33]
[2]; Rattus norvegicus, po, 3 h, Table I, 10 mg/kg, oral, 1 h before carrageenin, 3 h, read-out: Reduction % (carrageenin edema)
  inhibition in vivo at 10 mg/kg: 22%

## OC1(c2ccccc2)CSC2=NCCN21 (stereo not drawn) [Compound 34]
[2]; Table II, 100 mg/kg, oral
  Reduction (%) (carrageenin edema): 70%

## CC1SC2=NCCN2C1(O)c1ccccc1 (stereo not drawn) [Compound 35]
[2]; Table II, 150 mg/kg, oral
  Reduction (%) (carrageenin edema): 68%

## OC1(c2ccc(Cl)cc2)CSC2=NCCN21 (stereo not drawn) [Compound 36]
[2]; Table II, 25 mg/kg, oral
  Reduction (%) (carrageenin edema): 57%

## OC1(c2ccccc2)CSC2=NCCCN21 (stereo not drawn) [Compound 37]
[2]; Table II, 50 mg/kg, oral
  Reduction (%) (carrageenin edema): 52%

## OC1(c2ccc(Cl)cc2)CSC2=NCCCN21 (stereo not drawn) [Compound 38]
[2]; Table II, 100 mg/kg, oral
  Reduction (%) (carrageenin edema): 76%

## COc1ccc(C2(O)CSC3=NCCCN32)cc1 (stereo not drawn) [Compound 39]
[2]; Table II, 40 mg/kg, oral
  Reduction (%) (carrageenin edema): 27%
